Test results from PMC11784839, “Monoaminergic neurotransmitters are bimodal effectors of tau aggregation” (Science Advances, 2025).

Target: tau (Homo sapiens, UniProt P10636)
Test: MCE Phenols Library screening, tau biosensor cell seeding assay (AvZ)
Type: cell-based
Details: for Z repl 1 / Z Repl 2: Z score; for Z repl 1 / raw data 1: replicate 1; for Z Repl 2 / raw data 2: replicate 2; for AvZ (average z score of seeding, SDs from the mean level of seeding): 10 μM phenol in cell cultures, AD brain homogenate preincubated 16 hours, two biological replicates, positive = catalyzes seeding, negative = inhibits
[1] = average Z score of two replicates, Phenols Library screen
[2] = average Z score of the two replicates, MCE Phenols Library screen
[3] = average puncta of the two replicates
[4] = average Z score of the two replicates, tau seeding

Sequence of tau (P10636 623-695 limits assumed): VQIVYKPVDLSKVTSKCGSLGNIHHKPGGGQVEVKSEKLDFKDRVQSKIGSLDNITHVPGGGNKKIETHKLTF

CC(C)=CCc1c2ccoc2c(O)c2oc(=O)ccc12 [Alloimperatorin]
Z repl 1: 0.545
Z Repl 2: -0.475
av Z [1]: 0.035
av puncta (average of raw data 1 and 2): 20292.7
raw data 1 (puncta): 32890.3
raw data 2 (puncta): 7695.05

O=C1c2cc(CO)cc(O)c2C(=O)c2c(O[C@@H]3O[C@H](CO)[C@@H](O)[C@H](O)[C@H]3O)cccc21 [Aloe-emodin-8-O-?-D-glucopyranoside]
Z repl 1: -0.712
Z Repl 2: -0.064
av Z [2]: -0.388
av puncta [3]: 14937.3
raw data 1 (raw puncta): 17796.3
raw data 2 (raw puncta): 12078.3

COc1cc(C)c2c(=O)cc(C[C@@H](C)O)oc2c1[C@@H]1O[C@H](CO)[C@@H](O)[C@H](O)[C@H]1OC(=O)/C=C/c1ccc(O)cc1 [Aloeresin D]
Z repl 1: -0.796
Z Repl 2: -0.937
av Z [2]: -0.867
av puncta (average of raw data 1 and 2): 9774.18
raw data 1 (puncta): 16789.2
raw data 2 (puncta): 2759.19

CC(=O)Cc1cc(=O)c2c(C)cc(O)c([C@@H]3O[C@H](CO)[C@@H](O)[C@H](O)[C@H]3O)c2o1 [Aloesin]
Z repl 1: 0.457
Z Repl 2: -0.177
av Z [4]: 0.14
av puncta (average of raw data 1 and 2): 21354.9
raw data 1 (puncta): 31839.2
raw data 2 (puncta): 10870.5

O=C1c2c(O)cccc2[C@@H]([C@@H]2O[C@H](CO)[C@@H](O)[C@H](O)[C@H]2O)c2cc(CO)cc(O)c21 [Aloin B]
Z repl 1: 0.434
Z Repl 2: -0.315
av Z [1]: 0.059
av puncta (average of raw data 1 and 2): 20479
raw data 1 (puncta): 31560.5
raw data 2 (puncta): 9397.5

O=C1c2c(O)cccc2C([C@@H]2O[C@H](CO)[C@@H](O)[C@H](O)[C@H]2O)c2cc(CO)cc(O)c21 (stereo partly drawn) [Aloin(mixture of A&B)]
Z repl 1: -0.336
Z Repl 2: -0.332
av Z [2]: -0.334
av puncta [3]: 15768.9
raw data 1 (raw puncta): 22314.5
raw data 2 (raw puncta): 9223.26

O=C1c2c(O)cccc2C([C@@H]2O[C@H](CO)[C@@H](O)[C@H](O)[C@H]2O)c2cc(CO)cc(O)c21 (stereo partly drawn) [Aloin]
Z repl 1: 0.178
Z Repl 2: 0.236
av Z [4]: 0.207
av puncta (average of raw data 1 and 2): 21886.9
raw data 1 (puncta): 28489.7
raw data 2 (puncta): 15284.2

O=c1cc(-c2ccc(O)c(-c3c(O)cc(O)c4c(=O)cc(-c5ccc(O)cc5)oc34)c2)oc2cc(O)cc(O)c12 [Amentoflavone]
Z repl 1: -0.87
Z Repl 2: -0.309
av Z [2]: -0.589
av puncta [3]: 12689.4
raw data 1 (puncta): 15910.5
raw data 2 (puncta): 9468.24

CCCCCCCCCCCCCCCc1cccc(O)c1C(=O)O [Anacardic Acid]
AvZ (average z score of seeding, SDs from the mean level of seeding): -0.119
Z repl 1: 0.086
Z Repl 2: -0.324
av puncta (average of raw data 1 and 2): 18346.5
raw data 1 (puncta): 27383.8
raw data 2 (puncta): 9309.16

O=c1cc(-c2ccc(O)cc2)oc2cc(O[C@@H]3O[C@H](CO)[C@@H](O)[C@H](O)[C@H]3O)cc(O)c12 [Apigenin 7-glucoside]
Z repl 1: 0.518
Z Repl 2: -0.371
av Z [1]: 0.074
av puncta (average of raw data 1 and 2): 20688.8
raw data 1 (puncta): 32570.5
raw data 2 (puncta): 8807.12

O=c1cc(-c2ccc(O)cc2)oc2cc(O[C@@H]3O[C@H](CO)[C@@H](O)[C@H](O)[C@H]3O[C@@H]3OC[C@](O)(CO)[C@H]3O)cc(O)c12 [Apiin]
Z repl 1: 1.204
Z Repl 2: 0.234
av Z [4]: 0.719
av puncta (average of raw data 1 and 2): 28032.2
raw data 1 (puncta): 40800.8
raw data 2 (puncta): 15263.6

COc1cc(C(C)=O)ccc1O [Apocynin]
AvZ (average z score of seeding, SDs from the mean level of seeding): -0.67
Z repl 1: -1.155
Z Repl 2: -0.185
av puncta [3]: 11639.1
raw data 1 (puncta): 12482.9
raw data 2 (puncta): 10795.4

OC[C@H]1O[C@@H](Oc2ccc(O)cc2)[C@H](O)[C@@H](O)[C@@H]1O [Arbutin]
Z repl 1: -0.665
Z Repl 2: 0.333
av Z [1]: -0.166
av puncta (average of raw data 1 and 2): 17341.3
raw data 1 (puncta): 18360
raw data 2 (puncta): 16322.6

CC(=O)c1cc2c(CO)cc(O)cc2oc1=O [Armillarisin A]
Z repl 1: -0.702
Z Repl 2: 0.126
av Z [2]: -0.288
av puncta [3]: 16013.9
raw data 1 (raw puncta): 17917.5
raw data 2 (raw puncta): 14110.3

O=c1c(O[C@@H]2O[C@H](CO)[C@@H](O)[C@H](O)[C@H]2O)c(-c2ccc(O)cc2)oc2cc(O)cc(O)c12 [Astragalin]
Z repl 1: -0.525
Z Repl 2: -0.638
av Z [2]: -0.581
av puncta [3]: 12999
raw data 1 (puncta): 20041.3
raw data 2 (puncta): 5956.82

COC(=O)c1c(C)cc(OC(=O)c2c(C)cc(O)c(C=O)c2O)c(C)c1O [Atranorin]
Z repl 1: -0.357
Z Repl 2: -0.801
av Z [2]: -0.579
av puncta [3]: 13136.9
raw data 1 (puncta): 22066.2
raw data 2 (puncta): 4207.53

COc1c(O[C@@H]2O[C@H](CO)[C@@H](O)[C@H](O)[C@H]2O)cc2c(c1O)C(=O)c1c(cc(C)c(O)c1OC)C2=O [Aurantio-obtusin ?-D-glucoside]
Z repl 1: -0.961
Z Repl 2: -0.271
av Z [2]: -0.616
av puncta [3]: 12342.8
raw data 1 (puncta): 14810.1
raw data 2 (puncta): 9875.55

O=c1c(O[C@@H]2O[C@@H](CO)[C@H](O)[C@H]2O)c(-c2ccc(O)c(O)c2)oc2cc(O)cc(O)c12 [Avicularin]
Z repl 1: 1.115
Z Repl 2: 1.158
av Z (average Z score of the two replicates, tau biosensor seeding, MCE Phenols Library screen): 1.136
av puncta (average of raw data 1 and 2): 32432
raw data 1 (puncta): 39734.3
raw data 2 (puncta): 25129.7
